The results in this text go back to patent US4599362A, “2-aryl-ethyl ether derivatives and insecticidal and acaricidal agents containing said derivatives” (priority 1980, dated 1986).

Read-outs that look alike come from different tables or passages of the source.

For test [1], the system named is resistant green rice leafhopper (collected at Nakagawara). Briefly: Test 3: Effect on Resistant Green Rice Leafhopper. It is filed as in vivo, Nephotettix cincticeps Uhler. The following applies: Nephotettix cincticeps, 24 h, read-out: Mortality (%) Green Rice Leafhopper Collected at Nakagawara. Here is the method: (§1) To a mixture of 20 parts of the compound of the present invention and 20 parts of Sorpol SM-200 (registered trademark for the product supplied by Toho Chemical Industrial Co., Ltd.) was added 60 parts of xylol, and the mixture was sufficiently blended. The obtained emulsifiable concentrate was diluted at a predetermined concentration with distilled water, and the obtained dilution was used.
(§2) Seedlings (having 2 to 3 leaves) of paddy rice were hydroponically cultured in a pot having a diameter of 5 cm. A chemical dilution having a concentration of 100 or 20 ppm, prepared in the same manner as described in Test 1, was applied with a sprayer at a rate of 3 ml per pot. The treated seedlings were air-dried and covered with a metal net cylinder, and female adults of resistant green rice leafhopper (collected at Nakagawara) and sensitive green rice leafhopper (collected at Chigasaki) were set, respectively, free in the pot at a density of 10 adults per pot. After of 24 hours, the numbers of killed and living adults were counted and the mortality was calculated. The test was made on three pots and the average value was calculated.

Test [2] relates to sensitive green rice leafhopper (collected at Chigasaki). Briefly: Test 3: Effect on Sensitive Green Rice Leafhopper. Format: in vivo. The following applies: Nephotettix cincticeps, female adults, 24 hours. Here is the method:
as §1, §2

In test [3] the test system is third-instar larvae of diamond back moth. Briefly: Test 4: Effect on Diamond Back Moth. It is filed as in vivo. The following applies: Plutella xylostella, 24 hours. As to the method:
as §1
Cabbage leaves were spread in a plastic cup, and 10 third-instar larvae of diamond back moth were set free in the cup.
A chemical dilution having a concentration of 100 or 20 ppm, prepared in the same manner as described in Test 1, was applied from an applicator at a rate of 3 ml per cup.
After scattering of the chemical dilution, the cup was covered, and after 24 hours, the numbers of killed and living larvae were counted and the mortality was calculated. The test was made on three cups and the average value was calculated.

The subject of test [4] is two-spotted spider mite. Briefly: Test 6: Effect on Two-Spotted Spider mite adults. Format: in vivo. The settings on record: Tetranychus urticae. Here is the method:
as §1
A kidney bean leaf disc perforated with a cork borer (15 mm in diameter) was placed on water-impreganated absorbent cotton (2 cm×2 cm), and 10 adults of two-spotted spider mite were set free. A chemical dilution having a concentration of 500 ppm was applied with an applicator in an amount of 3 ml.
The leaf disc-placed absorbent cotton was placed in a thermostat chamber maintained at 25° C. After 24 hours, the number of killed adults was counted and the mortality was calculated. The test was made on three leaf discs and the average value was calculated.

The test system of test [5] is German cockroach. Description: Test 7: Effect on German Cockroach. It is filed as in vivo. The settings on record: Blattella germanica, male adults, 24 hours, agonized and killed; for mortality at 10 mg/m2: 10 mg/m^2; for mortality at 50 mg/m2: 50 mg/m^2. As to the method:
The bottom face of a high Petri dish having a diameter of 9 cm and a height of 9 cm was treated with 50 or 10 mg/m^2 of a test compound and the dish was air-dried. In order to prevent the adults from escaping from the dish, the inner wall of the dish was treated with butter. Then, 10 male adults of German cockroach were set free in each dish, and the dish was placed in a thermostat chamber maintained at 25° C. After 24 hours, the number of agonized and killed adults was counted. The test was made on two dishes and the average value was calculated.

Test [6] deals with Second-instar and fifth-instar larvae of tobacco cutworm. Description: Test 2: Tobacco Cutworm Larva Dipping Test. Format: in vivo. As to the method:
as §1
A dilution having a chemical concentration of 100 or 20 ppm was prepared in the same manner as described in Test 1.
Second-instar and fifth-instar larvae of tobacco cutworm were dipped in the dilution for 5 seconds, and the excessive dilution was removed by a filter paper. Then, the larvae were set free in a plastic cup and an artificial diet was supplied thereto. The cup was allowed to stand still in a thermostat chamber maintained at 25° C. After 24 hours, the numbers of the killed and living larvae were counted and the mortality was calculated. The test was made on three cups and the result was expressed by an average value.

Where [7] appears, read: 500 ppm, adults, 24 hours, read-out: Mortality (%).
Setting [8] is: 20 ppm, second-instar larvae, 24 hours, read-out: Mortality (%) Second-Instar Larvae.
[9] abbreviates: 100 ppm, second-instar larvae, 24 hours, read-out: Mortality (%) Second-Instar Larvae.
Setting [10] is: topical, 24 h, read-out: Mortality (%) Fifth-Instar Larvae.

`CCOc1ccc(C(COCc2ccc(F)c(Oc3ccccc3)c2)C(C)C)cc1` (stereo not shown) [Compound 62, 3-Phenoxy-4-fluorobenzyl 2-(4-ethoxyphenyl)-3-methylbutyl ether]: the mortality at 20 ppm in test [1], in test [2] and in test [3] was 100% throughout. Further, the mortality at 100 ppm in test [1], in test [2] and in test [3] was 100% throughout.
In the case of `CC(C)(COCc1ccc(F)c(Oc2ccccc2F)c1)c1ccc(Cl)cc1` [Compound 11, 3-(2-Fluorophenoxy)-4-fluorobenzyl 2-(4-chlorophenyl)-2-methylpropyl ether], the mortality at 20 ppm in test [1], in test [2] and in test [3] was 100% throughout. Moreover, the mortality at 100 ppm in test [1], in test [2] and in test [3] was 100% throughout. The mortality (usually the percentage killed) at 500 ppm in test [4] (setting [7]) came out at 100%. In test [5], this compound showed a mortality at 10 mg/m2 of 100%. In test [5], this compound registered a mortality at 50 mg/m2 of 100%.
For `CCCOc1ccc(C(C)(C)COCc2ccc(F)c(Oc3ccccc3)c2)cc1` [Compound 65], in test [1], the mortality at 20 ppm was 100% and the mortality at 100 ppm came to 100%. In test [2], this compound displayed a mortality at 20 ppm of 100% and a mortality at 100 ppm of 100%. In test [3], this compound yielded a mortality at 20 ppm of 100% and a mortality at 100 ppm of 100%. Besides, in test [5], the mortality at 10 mg/m2 is 100% and the mortality at 50 mg/m2 came out at 100%.
With `Cc1cccc(Oc2cc(COCC(C)(C)c3ccc(Cl)cc3)ccc2F)c1` [Compound 22, 3-(3-Methylphenoxy)-4-fluorobenzyl 2-(4-chlorophenyl)-2-methylpropyl ether], the mortality at 20 ppm in test [1] is 75%; in test [2], 60%. The mortality at 100 ppm in test [1] and in test [2] was 100% each time.
`CCOc1ccc(C(C)(CC)COCc2ccc(F)c(Oc3ccccc3)c2)cc1` (stereo not shown) [Compound 55, 3-Phenoxy-4-fluorobenzyl 2-(4-ethoxyphenyl)-2-methylbutyl ether]: in test [3], the mortality at 20 ppm came to 100% and the mortality at 100 ppm was determined as 100%. In test [5], this compound had a mortality at 10 mg/m2 of 100% and a mortality at 50 mg/m2 of 100%.
In the case of `CC(C)(COCc1ccc(F)c(Oc2ccccc2)c1)c1ccc([N+](=O)[O-])cc1` [Compound 30, 3-Phenoxy-4-fluorobenzyl 2-(4-nitrophenyl)-2-methylpropyl ether], in test [1], the mortality at 20 ppm came out at 90% and the mortality at 100 ppm is 100%. In test [2], this compound displayed a mortality at 20 ppm of 80% and a mortality at 100 ppm of 100%.
Consider `CC(C)c1ccc(C(C)(C)COCc2ccc(F)c(Oc3ccccc3)c2)cc1` [Compound 58], for which, in test [1], the mortality at 20 ppm was 100% and the mortality at 100 ppm came out at 100%. For the same compound, in test [2], the mortality at 20 ppm is 100% and the mortality at 100 ppm was 100%. For the same compound, the mortality at 500 ppm in test [4] (setting [7]) was 100%. In test [5], this compound gave a mortality at 10 mg/m2 of 100% and a mortality at 50 mg/m2 of 100%.
As for `CC(C)(COCc1ccc(F)c(Oc2ccccc2)c1)c1ccc(I)cc1` [Compound 66, 3-Phenoxy-4-fluorobenzyl 2-(4-iodophenyl)-2-methylpropyl ether], the mortality at 20 ppm in test [6] (setting [8]) is 90%; in test [6] (setting [10]), 75%; in test [1], 100%; in test [2], 100%; in test [3] it was 90%. The mortality at 100 ppm in test [6] (setting [9]), in test [6] (setting [10]), in test [1], in test [2] and in test [3] was 100% in each case. For the same compound, the mortality at 500 ppm in test [4] (setting [7]) came to 100%. The compound also came in with a mortality at 10 mg/m2 in test [5] of 100%. The compound also had a mortality at 50 mg/m2 in test [5] of 100%.
Consider `CC(C)(COCc1ccc(F)c(Oc2ccccc2)c1)c1cccc(C(F)(F)F)c1` [Compound 17, 3-Phenoxy-4-fluorobenzyl 2-(3-trifluoromethylphenyl)-2-methylpropyl ether], for which, in test [1], the mortality at 20 ppm turned out to be 100% and the mortality at 100 ppm is 100%. Also, in test [2], the mortality at 20 ppm is 90% and the mortality at 100 ppm was 100%.
Regarding `CCOc1cccc(C(C)(C)COCc2ccc(F)c(Oc3ccccc3)c2)c1` [Compound 57], the mortality at 20 ppm in test [1], in test [2] and in test [3] was 100% each time. Moreover, the mortality at 100 ppm in test [1], in test [2] and in test [3] was 100% throughout.
On to `CCOc1ccc(C(CC)COCc2ccc(F)c(Oc3ccccc3)c2)cc1` (stereo not shown) [Compound 47, 3-Phenoxy-4-fluorobenzyl 2-(4-ethoxyphenyl)-butylether], for which, in test [3], the mortality at 20 ppm came to 100% and the mortality at 100 ppm was 100%. Besides, the mortality at 500 ppm in test [4] (setting [7]) was determined as 85%. In test [5], this compound gave a mortality at 10 mg/m2 of 100% and a mortality at 50 mg/m2 of 100%.
Take `CC(C)(COCc1ccc(F)c(Oc2ccccc2)c1)c1ccc(F)c(Cl)c1` [Compound 50, 3-Phenoxy-4-fluorobenzyl 2-(3-chloro-4-fluorophenyl)-2-methylpropyl ether]: the mortality at 20 ppm in test [6] (setting [8]) came to 90%. In addition, the mortality at 100 ppm in test [6] (setting [9]) worked out at 100%. For the same compound, in test [6] (setting [10]), the mortality at 20 ppm is 80% and the mortality at 100 ppm was found to be 100%. Also, in test [5], the mortality at 10 mg/m2 is 100% and the mortality at 50 mg/m2 was 100%.
Regarding `CCOP(=S)(OCC)Oc1ccc(=O)n(-c2ccccc2)n1` [(d), 0,0-diethyl-0-(3-oxo-2-phenyl-2H-pyridazin-6-yl)-phosphorothioate, reference compound], in test [4] (24 h), the mortality at 500 ppm was determined as 80%.
As to `CCOc1ccc(Oc2cc(COCC(C)(C)c3ccc(OCC)cc3)ccc2F)cc1` [Compound 53, 3-(4-Ethoxyphenoxy)-4-fluorobenzyl 2-(4-ethoxyphenyl)-2-methylpropyl ether], in test [1], the mortality at 20 ppm was 100% and the mortality at 100 ppm came to 100%. In test [2], this compound returned a mortality at 20 ppm of 90% and a mortality at 100 ppm of 100%. In test [5], this compound came in with a mortality at 10 mg/m2 of 100% and a mortality at 50 mg/m2 of 100%.
`CC(C)(COCc1ccc(F)c(Oc2ccccc2)c1)c1ccc2c(c1)OCO2` [Compound 33, 3-Phenoxy-4-fluorobenzyl 2-(3,4-methylenedioxyphenyl)-2-methylpropyl ether]: in test [1], the mortality at 20 ppm stood at 100% and the mortality at 100 ppm came to 100%. Also, in test [2], the mortality at 20 ppm was 100% and the mortality at 100 ppm turned out to be 100%.
On to `CCC(C)Oc1ccc(C(C)(C)COCc2ccc(F)c(Oc3ccccc3)c2)cc1` (stereo not shown) [Compound 63], for which, in test [1], the mortality at 20 ppm worked out at 100% and the mortality at 100 ppm is 100%. Moreover, in test [2], the mortality at 20 ppm came out at 100% and the mortality at 100 ppm was found to be 100%. For the same compound, in test [4] (setting [7]), the mortality at 500 ppm was 100%. Further, in test [5], the mortality at 10 mg/m2 turned out to be 100% and the mortality at 50 mg/m2 was 100%.
